Measured values published in patent US20050065099A1, “Treatment of mitochondrial diseases” (priority 2003, published 2005).

Columns and labels:
Male C57/BL6 mice = assay: MPTP animal model (neurobehavioral outcome); type: in vivo; conditions: 30 mg/kg/day ip; for functional deficit produced by MPTP: days 1-3; for functional outcome versus vehicle treated animals: days 1 and 2, comparable to negative control group
Protocol: In vivo evaluation is carried out using mice that have been treated with 1-methyl-4-phenyl-1,2,3,6-tetrahydropyridine (MPTP), a neurotoxin. […] In a number of species, including humans, […] and rodents, MPTP produces an irreversible and severe parkinsonian syndrome which includes virtually all the clinical features of the disease.
Male C57/BL6 mice (Harlan, Ind.), weight 25-30 g, were used in all studies. MPTP-HCl (Sigma) was administered i.p. according to one of the following protocols. The maximum volume which was given per injection is 200 μL. In all studies, animals were euthanized with carbon dioxide and, brains were removed for subsequent determination of dopamine depletion where appropriate.
Animals received 25 mg/kg of MPTP once a day for 5 consecutive days. The end point was 2 days after the final dose.
Animals received 4×20 mg/kg of MPTP at 2 hour intervals. The end point was at either 7 or 14 days.
Animals received 2×40 mg/kg of MPTP with this repeated 16 hours later. The end point was at either 14 or 28 days.
Animals received 25 mg/kg of MPTP, given twice weekly for 5 weeks. The end point was either 1, 3 or 24 weeks after the final dose.
Compound efficacy was examined with the use of neurobehavioral models. These models allowed the determination of a given compound's ability to reverse the motor deficits seen with MPTP treatment.
All animals received pre-training for the individual model and a baseline reading was obtained one day prior to the commencement of MPTP treatment.
The open field test was carried out in a clear, acrylic open box 60 cm×60 cm. The base of the box was marked into a 5×5 grid of […] squares. Animals were individually placed in the box and allowed to roam free. The number of squares an animal crossed in a 90 second time period was recorded. In order to be scored, the animal must either have had all four limbs within a given square or, all four limbs must have left a given square.
A tactile stimulus (0.5×0.5 cm square of “sticky tape”) was applied to each side of the animal's face and the time taken to remove it is recorded. The following measurements were recorded: • a. Latency to contact left side tape • b. Latency to contact right side tape • c. Order of side contacted (left vs. right) • d. Latency to remove left side tape • e. Latency to remove right side tape Pole Test
A rough surfaced metal pole (diameter 8 mm, height 50 cm) protruding from a cage filled with animal bedding was used for this test. Animals were placed head upwards at the top of the pole. They were required to turn and descend face downwards and the time taken for this was recorded (latency to reach bedding). Timing was started when the individual animal gripped the top of the pole and was stopped when all four limbs contacted the bedding.
All test compounds were administered ip. The maximum volume which was given per injection was 200 μL. Compounds were dosed up to twice daily, two days prior and 7 days post MPTP treatment.
A baseline reading was taken for each animal one day prior to MPTP treatment. All subsequent readings were normalized to the individual animal's baseline. Values were expressed as a percent baseline.
Data was percent baseline and expressed as mean±std dev: […]
Compound and vehicle given for 9 days in total, 2 days prior to MPTP and 7 days after MPTP treatment. L-DOPA given 1 hour prior to the pole test, each day.

FRDA fibroblasts = assay: FRDA fibroblast assay for protection from oxidative stress; type: cell-based; conditions: Homo sapiens, 24 h preincubation, 1 mM BSO, compared to untreated FRDA fibroblasts, read-out: EC50 for reduction of cell death in FRDA fibroblasts
Text: A cellular assay using FRDA-patient derived fibroblasts (as described by Jauslin, M L et al, Human Molecular Genetics 11; 3055-3063 (2002)); is used to determine the cell protecting effect of the test compounds by analyzing survival of dermal fibroblasts taken from FRDA patients and unaffected normal donors under conditions of partial GSH depletion. Exposure of FRDA fibroblasts to BSO (L-buthionine (S,R)-sulfoximine) under conditions of restricted selenium causes depletion of cellular glutathione (GSH) and severe plasma membrane damage leading to cell death. Preincubation with the test compounds before the addition of BSO is used to determine if they can protect FRDA cells from BSO-mediated cell death.
Primary fibroblasts were derived from donors with a molecular diagnosis of FRDA and control donors with no mitochondrial disease. Lines F2, C2 and C3 were obtained from Coriell Cell Repositories (Camden, N.J., USA; catalog #'s GM04078, GM 08402 and GM08399, respectively). All cell types were diagnosed at the molecular level for intronic GAA triplet repeat length in the trataxin gene using a PCR-based method, according to methods known in the art. […] The cells were seeded in microtiter plates at a density of 4000 cells per 100 μl in growth medium consisting of 25% (v/v) M199 EBS and 64% (v/v) MEM EBS without phenol red (Bioconcept, Allschwil, Switzerland) supplemented with 10% (v/v) fetal calf serum (PAA Laboratories, Linz, Austria), 100 U/ml penicillin, 100 μg/ml streptomycin (PAA Laboratories, Linz, Austria), 10 μg/ml insulin (Sigma, Buchs, Switzerland), 10 μg/ml EGF (Sigma, Buchs, Switzerland), 10 μg/ml bFGF (PreproTech, Rocky Hill, N.J., USA) and 2 mM glutamine (Sigma, Buchs, Switzerland). The cells were incubated in the presence of the various test compounds for 24 h before addition of 1 mM BSO (L-buthionine (S,R)-sulfoximine).
Cell viability was measured after the first signs of toxicity appeared in the BSO-treated controls (typically after 16-48 h). The cells were stained for 60 min at room temperature in PBS with 1.2 μm calceinAM and 4 μm ethidium homodimer (Live/Dead assay, Molecular Probes, Eugene, Oreg., USA). Fluorescence intensity was measured with a Gemini Spectramax XS spectrofluorimeter (Molecular Devices, Sunnyvale, Calif., USA) using excitation and emission wavelengths of 485 and 525 nm, respectively.

[1] = system: dopaminergic neuronal cell line; assay: High glutamate-induced oxidative stress assay (HGOS); type: cell-based; conditions: Mus musculus; 30 mM glutamate, 16 hrs, Cell Tracker Green; read-out: EC50 for protection against HGOS cell injury and cell death
Text: Protection against redox stress can be further evaluated in cell culture using high glutamate induced oxidative stress (HGOS) in mouse dopaminergic cell lines. The cytotoxic effect of glutamate is not due to excitotoxicity, as this cell line is devoid of inotropic glutamate receptors. Rather, the glutamate-induced toxicity of dopaminergic cells is associated with an inhibition of cystine transport which subsequently leads to depletion of intracellular glutathione (GSH) levels (Murphy T. H., et al. Neuron 2, 1547-1558, 1989), activation of neuronal 12-lipoxygenase (Li, Y. et al., Neuron 19,453-463, 1997), increased ROS production (Tan S. et al., J. Cell Biol. 141, 1423-1432, 1998) and elevated intracellular Ca^2+ (Li, Y. et al., see supra). Some molecules were measured for their ability to protect such cells against glutamate-induced stress and the assay is detailed in Examples.
This procedure was used to induce high glutamate-induced oxidative stress (HGOS) in a dopaminergic neuronal cell line. Using this assay the potency and efficacy of test articles against HGOS neuronal cell injury and cell death was established in a high throughput manner.
The cells were seeded into 96-well plates at a density of 2000 per well and left to grow for 72 hours in a 33° C. incubator with 5% CO2 in air atmosphere. The passage number of the cells for each assay experiment were no later than p11 in order to minimize experimental variation.
All compounds were dissolved in DMEM-No Glu containing 1 mM glucose, 30 mM glutamate and 1× Pen/Strep. DMEM-No Glu with 1 mM glucose and 1×P/S was used as the negative control, DMEM-No Glucose with 1 mM glucose, […] was used as a positive control and 100 μM Glutathione was added to the positive control as a standard. All of the procedures for this involving the making and dilution of compounds were performed using aseptic conditions and with minimal light.
The plates were removed from the incubator and examined under the microscope for morphological appearance and density. Using an aseptic technique and an 8-channel aspirator the media was carefully removed from the cells and replaced with 200 μl of 1×HBSS. This was done as quickly as possible to prevent the cells drying out. The plates were then placed in the humidified 37° C. incubators of the Biomek 2000 Side Loader. Four plates were washed at a time so as to minimize the time that the cells were sitting in 1×HBSS prior to addition of the compound test solution.
The Beckman Biomek workstations were used to load the compounds and controls from the mother plates onto the cell plates that were prewashed with HBSS under sterile conditions. The plates were incubated in the upper HTS incubator at 37° C. in 5% CO2 for exactly 16 hrs. The following day, using the Beckman Biomek workstations, the plates were removed from the incubator. Using Cell Tracker Addition, the compounds were removed from the plates, washed once with […] of pre-warmed 1×HBSS and then 100 μL of 5 μM Cell Tracker Green was added to each well. The plates were incubated at 37° C. for 30 min to allow the dye to enter the cell and be cleaved by the esterases. After washing the cells twice with prewarmed 1×HBSS, the plates were read with the 485 excitation; 538 emission filter pair on a Fluoroskan.

Row | SMILES | functional deficit produced by MPTP (Male C57/BL6 mice) | functional outcome versus vehicle treated animals (Male C57/BL6 mice) | EC50 (FRDA fibroblasts) [µM] | EC50 [1] [µM]
1 | Cc1c(O)cc2c(c1C)OC(C)(C)C=C2 [2,2,7,8-Tetramethyl-2H-chromen-6-ol] | significantly reduced | significantly better | 0.01 to 6 | 
2 | CC(C)=CCc1c(O)c(C)c(C)c2c1CCC(C)(C)O2 [2,2,7,8-Tetramethyl-5-(3-methyl-but-2-enyl)-chroman-6-ol] | significantly reduced | significantly better |  | 
3 | COC(=O)CCC1(C)CCc2c(Br)c(O)c(C)c(C)c2O1 (centres unmarked) [3-(5-Bromo-6-hydroxy-2,7,8-trimethyl-chroman-2-yl)-propionic acid methyl ester] | significantly reduced | significantly better | 0.01 to 6 | ≤ 5
4 | Cc1cc(O)cc2c1OC(C)(CCC(=O)O)CC2 (centres unmarked) [3-(6-Hydroxy-2,8-dimethyl-chroman-2-yl)-propionic acid] | significantly reduced | significantly better | 0.01 to 6 | 
5 | CC(C)=CCc1c(O)c(C)c(C)c2c1CCC(C)(CCC(=O)O)O2 (centres unmarked) [3-[6-Hydroxy-2,7,8-trimethyl-5-(3-methyl-but-2-enyl)-chroman-2-yl]-propionic acid] | significantly reduced | significantly better |  | 
6 | COC(=O)CSCc1c(O)c(C)c(C)c2c1CCC(C)(C)O2 [(6-Hydroxy-2,2,7,8-tetramethyl-chroman-5-ylmethylsulfanyl)-acetic acid methyl ester] | significantly reduced | significantly better |  | ≤ 5
